Results on two compounds are retold here after PMC9329436, “Optimization of the 4-anilinoquin(az)oline scaffold as epidermal growth factor receptor (EGFR) inhibitors for chordoma utilizing a toxicology profiling assay platform” (Scientific Reports, 2022).

Holding throughout (format): biochemical
Assay [1] concerns the target T1, 320 wild-type protein kinases (Homo sapiens, UniProt O14733).
T1 sequence (O14733 1-419): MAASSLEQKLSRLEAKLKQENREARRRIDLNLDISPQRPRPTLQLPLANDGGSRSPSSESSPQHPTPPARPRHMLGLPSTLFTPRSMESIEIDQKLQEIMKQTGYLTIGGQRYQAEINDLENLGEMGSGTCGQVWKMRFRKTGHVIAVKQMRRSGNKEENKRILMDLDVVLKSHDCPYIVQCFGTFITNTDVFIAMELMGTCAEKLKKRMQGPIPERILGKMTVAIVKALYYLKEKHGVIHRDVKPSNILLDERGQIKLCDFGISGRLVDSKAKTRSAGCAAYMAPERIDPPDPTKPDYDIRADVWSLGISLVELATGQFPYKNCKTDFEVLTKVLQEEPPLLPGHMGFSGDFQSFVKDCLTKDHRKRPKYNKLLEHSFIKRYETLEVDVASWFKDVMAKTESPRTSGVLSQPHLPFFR
The note with it: singlicate. From the text: (§1) Table S4. Profiling of two compounds at two concentrations against 320 wild-type protein kinases; singlicate measurement; Residual activities (% of control).

Assay [2] addresses T2, 320 wild-type protein kinases (Homo sapiens, UniProt O14757).
T2 sequence (O14757 1-476): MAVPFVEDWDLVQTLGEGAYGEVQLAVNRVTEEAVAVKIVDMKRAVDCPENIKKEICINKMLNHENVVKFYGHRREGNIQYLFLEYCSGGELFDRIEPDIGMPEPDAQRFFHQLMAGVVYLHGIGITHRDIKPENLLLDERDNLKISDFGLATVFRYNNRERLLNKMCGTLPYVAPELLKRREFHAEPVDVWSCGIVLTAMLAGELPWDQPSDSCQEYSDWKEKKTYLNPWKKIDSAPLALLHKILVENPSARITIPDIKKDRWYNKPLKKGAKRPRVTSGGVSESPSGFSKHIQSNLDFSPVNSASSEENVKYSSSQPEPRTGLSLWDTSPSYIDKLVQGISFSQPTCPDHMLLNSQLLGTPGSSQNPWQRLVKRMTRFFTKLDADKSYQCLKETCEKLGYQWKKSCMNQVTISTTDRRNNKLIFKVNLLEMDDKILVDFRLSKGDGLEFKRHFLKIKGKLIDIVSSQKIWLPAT
The note with it: singlicate.
Text: as §1

Assay [3] addresses 320 wild-type protein kinases (Homo sapiens, UniProt P00519). The note with it: singlicate.
Text: as §1

In assay [4] the target is 320 wild-type protein kinases (Homo sapiens, UniProt P07948). The note with it: LYN, singlicate.
Text: as §1

Assay [5] has as its target 320 wild-type protein kinases (Homo sapiens, UniProt P09619). The note with it: PDGFR-beta, singlicate.
Text: as §1

For assay [6], the target named is 320 wild-type protein kinases (Homo sapiens, UniProt P35916). The note with it: kinase VEGF-R3, singlicate.
Text: as §1

The target in assay [7] is 320 wild-type protein kinases (Homo sapiens, UniProt P45984). The note with it: singlicate.
Text: as §1

For assay [8], the target named is 320 wild-type protein kinases (Homo sapiens, UniProt P57059). The note with it: kinase SIK1, singlicate.
Text: as §1

Assay [9] concerns the target 320 wild-type protein kinases (Homo sapiens, UniProt P78362). The note with it: kinase SRPK2, singlicate.
Text: as §1

Assay [10] concerns the target T3, 320 wild-type protein kinases (Homo sapiens, UniProt Q32MK0).
T3 sequence (Q32MK0 1-819): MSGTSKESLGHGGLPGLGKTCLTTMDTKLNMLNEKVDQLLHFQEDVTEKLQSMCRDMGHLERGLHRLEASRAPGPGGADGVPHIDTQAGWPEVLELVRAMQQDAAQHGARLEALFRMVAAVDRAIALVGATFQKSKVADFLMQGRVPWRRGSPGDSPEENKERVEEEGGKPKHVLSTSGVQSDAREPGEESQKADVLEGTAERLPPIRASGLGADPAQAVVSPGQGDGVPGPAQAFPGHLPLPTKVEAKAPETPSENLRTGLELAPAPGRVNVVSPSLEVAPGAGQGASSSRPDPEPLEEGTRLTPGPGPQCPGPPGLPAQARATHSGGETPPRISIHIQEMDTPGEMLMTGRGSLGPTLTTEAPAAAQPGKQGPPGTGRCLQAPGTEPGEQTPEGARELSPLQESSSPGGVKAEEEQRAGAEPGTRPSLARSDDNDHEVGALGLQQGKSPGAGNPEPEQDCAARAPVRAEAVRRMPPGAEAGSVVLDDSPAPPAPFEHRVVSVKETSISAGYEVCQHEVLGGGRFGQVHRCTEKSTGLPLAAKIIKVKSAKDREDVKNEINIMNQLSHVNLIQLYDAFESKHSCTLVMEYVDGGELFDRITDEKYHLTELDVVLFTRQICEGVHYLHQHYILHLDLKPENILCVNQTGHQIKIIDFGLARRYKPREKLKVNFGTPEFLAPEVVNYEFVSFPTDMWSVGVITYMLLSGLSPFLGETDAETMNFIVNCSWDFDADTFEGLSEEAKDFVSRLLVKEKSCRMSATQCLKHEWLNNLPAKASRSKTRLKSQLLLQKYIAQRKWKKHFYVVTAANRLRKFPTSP
The note with it: singlicate.
Text: as §1

Assay [11] deals with 320 wild-type protein kinases (Homo sapiens, UniProt Q9BWU1). The note with it: CDK19/CycC, singlicate.
Text: as §1

Where two headings read alike, the source gives them in different places.

320 wild-type protein kinases (Homo sapiens, UniProt P78362), sequence (P78362 whole entry): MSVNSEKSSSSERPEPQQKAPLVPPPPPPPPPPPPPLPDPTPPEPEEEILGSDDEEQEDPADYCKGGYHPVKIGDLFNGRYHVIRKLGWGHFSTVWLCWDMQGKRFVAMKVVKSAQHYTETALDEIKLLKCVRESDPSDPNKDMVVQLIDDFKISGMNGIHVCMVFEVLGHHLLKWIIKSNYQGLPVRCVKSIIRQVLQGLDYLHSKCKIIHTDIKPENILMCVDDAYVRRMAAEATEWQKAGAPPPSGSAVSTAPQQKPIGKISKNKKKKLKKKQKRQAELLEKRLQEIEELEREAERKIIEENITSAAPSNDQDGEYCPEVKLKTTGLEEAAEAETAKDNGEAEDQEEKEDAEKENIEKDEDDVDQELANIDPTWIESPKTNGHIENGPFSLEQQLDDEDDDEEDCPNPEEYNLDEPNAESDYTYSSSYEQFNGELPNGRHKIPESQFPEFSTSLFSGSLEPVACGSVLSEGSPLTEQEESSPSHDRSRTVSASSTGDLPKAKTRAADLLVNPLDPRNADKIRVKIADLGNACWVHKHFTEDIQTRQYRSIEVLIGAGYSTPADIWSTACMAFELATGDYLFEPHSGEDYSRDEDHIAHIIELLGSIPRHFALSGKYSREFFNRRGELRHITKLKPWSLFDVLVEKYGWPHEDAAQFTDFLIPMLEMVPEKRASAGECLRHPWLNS
320 wild-type protein kinases (Homo sapiens, UniProt P45984), sequence (P45984 whole entry): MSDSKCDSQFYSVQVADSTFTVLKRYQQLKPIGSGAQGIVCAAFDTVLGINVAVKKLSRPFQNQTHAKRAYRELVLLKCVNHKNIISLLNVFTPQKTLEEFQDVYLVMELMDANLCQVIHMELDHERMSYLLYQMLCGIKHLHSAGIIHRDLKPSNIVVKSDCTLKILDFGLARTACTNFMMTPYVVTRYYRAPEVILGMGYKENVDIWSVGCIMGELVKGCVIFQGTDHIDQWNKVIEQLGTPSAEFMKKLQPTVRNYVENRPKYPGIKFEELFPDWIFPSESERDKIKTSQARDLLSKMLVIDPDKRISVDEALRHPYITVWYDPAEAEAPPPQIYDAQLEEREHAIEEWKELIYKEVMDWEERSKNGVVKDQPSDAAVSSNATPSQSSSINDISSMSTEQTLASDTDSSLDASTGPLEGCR
320 wild-type protein kinases (Homo sapiens, UniProt Q9BWU1), sequence (Q9BWU1 whole entry): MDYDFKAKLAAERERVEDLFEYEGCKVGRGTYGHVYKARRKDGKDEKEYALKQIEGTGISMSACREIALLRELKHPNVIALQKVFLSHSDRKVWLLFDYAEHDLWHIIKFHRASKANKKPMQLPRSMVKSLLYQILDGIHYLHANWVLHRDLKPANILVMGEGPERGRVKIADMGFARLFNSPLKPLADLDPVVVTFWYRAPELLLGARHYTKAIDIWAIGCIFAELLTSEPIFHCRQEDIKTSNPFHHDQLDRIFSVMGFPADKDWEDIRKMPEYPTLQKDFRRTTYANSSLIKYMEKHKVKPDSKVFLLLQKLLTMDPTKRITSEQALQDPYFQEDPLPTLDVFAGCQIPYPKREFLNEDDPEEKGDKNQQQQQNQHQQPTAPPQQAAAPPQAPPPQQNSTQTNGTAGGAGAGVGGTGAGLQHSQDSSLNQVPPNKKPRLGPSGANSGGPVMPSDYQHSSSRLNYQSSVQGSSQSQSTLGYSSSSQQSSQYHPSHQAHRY
320 wild-type protein kinases (Homo sapiens, UniProt P35916), sequence (P35916 25-1363): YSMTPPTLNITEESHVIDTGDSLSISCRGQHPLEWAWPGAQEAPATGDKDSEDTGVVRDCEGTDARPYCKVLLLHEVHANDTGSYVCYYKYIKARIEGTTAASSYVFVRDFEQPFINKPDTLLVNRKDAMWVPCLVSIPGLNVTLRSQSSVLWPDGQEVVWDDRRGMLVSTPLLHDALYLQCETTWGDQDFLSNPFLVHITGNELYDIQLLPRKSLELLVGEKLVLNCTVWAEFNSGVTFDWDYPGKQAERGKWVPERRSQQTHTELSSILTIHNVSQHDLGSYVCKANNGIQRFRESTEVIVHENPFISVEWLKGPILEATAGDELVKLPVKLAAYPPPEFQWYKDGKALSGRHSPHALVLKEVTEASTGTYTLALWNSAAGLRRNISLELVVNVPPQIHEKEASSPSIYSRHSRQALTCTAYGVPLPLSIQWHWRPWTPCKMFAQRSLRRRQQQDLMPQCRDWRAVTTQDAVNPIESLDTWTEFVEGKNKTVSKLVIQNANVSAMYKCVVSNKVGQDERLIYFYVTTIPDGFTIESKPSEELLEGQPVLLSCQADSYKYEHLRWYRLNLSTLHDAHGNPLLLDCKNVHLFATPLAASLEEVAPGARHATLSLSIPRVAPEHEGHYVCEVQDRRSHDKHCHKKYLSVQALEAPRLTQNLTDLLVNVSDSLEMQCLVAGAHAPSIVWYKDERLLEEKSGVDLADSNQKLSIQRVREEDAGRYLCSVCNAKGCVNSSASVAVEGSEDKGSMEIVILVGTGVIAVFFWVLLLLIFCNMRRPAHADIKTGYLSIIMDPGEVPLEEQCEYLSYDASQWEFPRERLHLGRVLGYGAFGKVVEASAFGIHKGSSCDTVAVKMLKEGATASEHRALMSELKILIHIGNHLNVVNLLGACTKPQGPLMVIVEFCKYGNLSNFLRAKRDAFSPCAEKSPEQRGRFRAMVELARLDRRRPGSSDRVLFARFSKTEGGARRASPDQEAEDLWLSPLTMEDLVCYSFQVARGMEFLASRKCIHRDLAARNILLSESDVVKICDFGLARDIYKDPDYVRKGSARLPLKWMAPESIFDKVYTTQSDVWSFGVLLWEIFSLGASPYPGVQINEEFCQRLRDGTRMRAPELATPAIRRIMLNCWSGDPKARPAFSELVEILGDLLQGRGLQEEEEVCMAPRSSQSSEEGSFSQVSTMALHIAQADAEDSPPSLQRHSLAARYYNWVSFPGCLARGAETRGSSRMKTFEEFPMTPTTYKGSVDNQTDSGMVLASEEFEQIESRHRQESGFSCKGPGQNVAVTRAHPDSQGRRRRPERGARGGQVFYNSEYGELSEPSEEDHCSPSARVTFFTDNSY
320 wild-type protein kinases (Homo sapiens, UniProt P09619), sequence (P09619 33-1106): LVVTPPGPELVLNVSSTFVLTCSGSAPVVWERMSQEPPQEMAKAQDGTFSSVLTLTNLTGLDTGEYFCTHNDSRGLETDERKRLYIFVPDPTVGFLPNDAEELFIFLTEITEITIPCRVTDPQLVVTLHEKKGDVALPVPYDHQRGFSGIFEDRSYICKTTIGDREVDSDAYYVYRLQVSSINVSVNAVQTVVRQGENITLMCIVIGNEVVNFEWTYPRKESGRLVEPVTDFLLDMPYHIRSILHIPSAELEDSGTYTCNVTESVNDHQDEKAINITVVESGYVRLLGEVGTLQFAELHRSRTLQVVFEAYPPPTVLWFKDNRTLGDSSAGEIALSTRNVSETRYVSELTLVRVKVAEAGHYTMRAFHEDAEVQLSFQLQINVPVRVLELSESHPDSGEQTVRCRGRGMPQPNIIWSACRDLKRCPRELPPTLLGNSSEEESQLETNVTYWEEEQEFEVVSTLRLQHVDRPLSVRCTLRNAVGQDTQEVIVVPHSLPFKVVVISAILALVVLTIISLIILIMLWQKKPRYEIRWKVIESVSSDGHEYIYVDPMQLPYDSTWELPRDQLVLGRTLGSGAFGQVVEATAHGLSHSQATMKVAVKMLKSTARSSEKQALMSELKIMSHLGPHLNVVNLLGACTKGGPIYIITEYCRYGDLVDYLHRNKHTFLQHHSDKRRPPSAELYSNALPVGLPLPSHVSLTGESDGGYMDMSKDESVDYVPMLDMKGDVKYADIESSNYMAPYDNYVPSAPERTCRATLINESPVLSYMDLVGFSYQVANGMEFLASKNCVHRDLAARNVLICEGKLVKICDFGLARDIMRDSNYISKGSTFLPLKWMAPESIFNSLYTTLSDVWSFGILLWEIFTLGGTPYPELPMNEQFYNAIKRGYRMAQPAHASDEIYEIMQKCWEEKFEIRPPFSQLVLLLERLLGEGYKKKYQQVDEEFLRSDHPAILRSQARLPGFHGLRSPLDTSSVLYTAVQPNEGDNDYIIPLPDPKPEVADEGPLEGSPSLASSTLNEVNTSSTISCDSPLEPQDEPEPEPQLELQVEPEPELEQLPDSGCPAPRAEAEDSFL
320 wild-type protein kinases (Homo sapiens, UniProt P07948), sequence (P07948 whole entry): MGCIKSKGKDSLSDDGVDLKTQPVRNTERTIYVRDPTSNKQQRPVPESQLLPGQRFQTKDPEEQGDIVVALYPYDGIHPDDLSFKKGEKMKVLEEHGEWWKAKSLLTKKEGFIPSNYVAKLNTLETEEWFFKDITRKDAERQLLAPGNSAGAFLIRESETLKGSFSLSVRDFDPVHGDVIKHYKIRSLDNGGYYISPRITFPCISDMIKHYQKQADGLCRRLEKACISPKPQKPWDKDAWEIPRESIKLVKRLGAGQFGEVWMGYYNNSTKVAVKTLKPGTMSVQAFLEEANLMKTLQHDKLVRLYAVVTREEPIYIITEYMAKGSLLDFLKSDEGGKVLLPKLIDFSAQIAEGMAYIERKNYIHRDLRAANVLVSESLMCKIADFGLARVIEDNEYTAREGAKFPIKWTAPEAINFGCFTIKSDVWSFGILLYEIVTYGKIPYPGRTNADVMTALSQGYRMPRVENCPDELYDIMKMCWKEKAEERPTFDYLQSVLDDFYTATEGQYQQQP

Regarding `C#Cc1cc(Nc2ncnc3cc(OC)c(OC)cc23)ccc1Cl` [Compound 45], the Residual activity in assay [1] (MKK7, 1.0E-06 M) is 98 % of control; in assay [1] (MKK7, 1.0E-07 M) it was 112 % of control; in [2] (CHK1, 1.0E-06 M), 74 % of control; in [2] (CHK1, 1.0E-07 M), 94 % of control; in [3] (ABL1, 1.0E-06 M) it was 59 % of control; in [3] (ABL1, 1.0E-07 M) it was 100 % of control. Moreover, the Residual activity in [4] (1.0E-06 M) is 62 % of control; in assay [4] (1.0E-07 M) it was 94 % of control; in assay [5] (1.0E-06 M), 95 % of control; in assay [5] (1.0E-07 M), 107 % of control; in assay [7] (JNK2, 1.0E-06 M), 120 % of control; in assay [7] (JNK2, 1.0E-07 M), 115 % of control. Also, the Residual activity in [10] (MYLK3, 1.0E-06 M) is given as 86 % of control; in [10] (MYLK3, 1.0E-07 M) it was 100 % of control; in assay [11] (1.0E-06 M) it was 97 % of control; in assay [11] (1.0E-07 M), 104 % of control. The “Residual activity, VEGF-R3” value was 112 % of control in [6] (assay conc. 1.0E-06 M) and 120 % of control in assay [6] (assay conc. 1.0E-07 M). For the same compound, the results for the “Residual activity, SIK1” value in [8] (assay conc. 1.0E-06 M) and in assay [8] (assay conc. 1.0E-07 M) were 87 % of control and 101 % of control, respectively. Besides, the “Residual activity, SRPK2” value in assay [9] (assay conc. 1.0E-06 M) is on record as 151 % of control; in assay [9] (assay conc. 1.0E-07 M), 115 % of control.

Regarding `C#Cc1cc(Nc2ncnc3cc(I)ccc23)ccc1Cl` [Compound 41], the Residual activity in assay [1] (MKK7, 1.0E-06 M) is reported as 120 % of control; in [1] (MKK7, 1.0E-07 M), 86 % of control; in [2] (CHK1, 1.0E-06 M), 85 % of control; in assay [2] (CHK1, 1.0E-07 M) it was 94 % of control; in assay [3] (ABL1, 1.0E-06 M), 72 % of control; in [3] (ABL1, 1.0E-07 M), 85 % of control. For the same compound, the Residual activity in assay [4] (1.0E-06 M) is on record as 89 % of control; in assay [4] (1.0E-07 M), 103 % of control; in assay [5] (1.0E-06 M) it was 98 % of control; in assay [5] (1.0E-07 M) it was 114 % of control; in [7] (JNK2, 1.0E-06 M), 116 % of control; in assay [7] (JNK2, 1.0E-07 M) it was 110 % of control. For the same compound, the Residual activity in [10] (MYLK3, 1.0E-06 M) is 93 % of control; in assay [10] (MYLK3, 1.0E-07 M) it was 104 % of control; in [11] (1.0E-06 M), 93 % of control; in assay [11] (1.0E-07 M), 91 % of control. Besides, the results for the “Residual activity, VEGF-R3” value in [6] (assay conc. 1.0E-06 M) and in assay [6] (assay conc. 1.0E-07 M) were 119 % of control and 121 % of control, respectively. The “Residual activity, SIK1” value is reported as 77 % of control in assay [8] (assay conc. 1.0E-06 M) and 93 % of control in assay [8] (assay conc. 1.0E-07 M). The “Residual activity, SRPK2” value is on record as 115 % of control in assay [9] (assay conc. 1.0E-06 M) and 131 % of control in assay [9] (assay conc. 1.0E-07 M).
